{"source": "patent US7629373B2", "about": "“Mitotic kinesin inhibitors” (Merck & Co. Inc., priority 2005, dated 2009)", "biological_target": "T1, human KSP motor domain (KSP(367H)) (Homo sapiens, UniProt P52732)", "T1 construct": "were used to amplify the motor domain and the neck linker region; made in house; host or cells: E. coli BL21 (DE3), pRSETa", "T1 sequence (P52732 18-359 limits assumed)": "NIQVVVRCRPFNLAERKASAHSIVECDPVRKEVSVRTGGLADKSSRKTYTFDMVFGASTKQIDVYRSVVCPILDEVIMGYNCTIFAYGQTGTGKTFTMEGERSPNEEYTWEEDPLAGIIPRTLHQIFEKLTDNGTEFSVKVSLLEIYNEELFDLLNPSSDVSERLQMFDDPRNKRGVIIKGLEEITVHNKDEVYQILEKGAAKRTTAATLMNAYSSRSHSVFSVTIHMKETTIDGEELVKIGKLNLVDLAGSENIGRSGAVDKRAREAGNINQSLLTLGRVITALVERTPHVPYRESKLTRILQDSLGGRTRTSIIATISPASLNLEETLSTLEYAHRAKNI", "assay": "Kinesin ATPase In Vitro Assay", "format": "biochemical", "details": "kinesin motor domain with microtubules, 1 mM ATP, 23° C.", "source_text": "I. Kinesin ATPase In Vitro Assay\nCloning and Expression of Human Poly-Histidine Tagged KSP Motor Domain (KSP(367H))\nPlasmids for the expression of the human KSP motor domain construct were cloned by PCR using a pBluescript full length human KSP construct (Blangy et al., Cell, vol. 83, pp 1159-1169, 1995) as a template. The N-terminal primer 5′-[…] (SEQ. ID. NO.: 1) and the C-terminal primer 5′-[…] […] (SEQ. ID. NO.: 2) were used to amplify the motor domain and the neck linker region. The PCR products were digested with AseI and XhoI, ligated into the NdeI/XhoI digestion product of pRSETa (Invitrogen) and transformed into E. coli BL21 (DE3).\nCells were grown at 37° C. to an OD600 of 0.5. […]\nThe kinesin motor domain is incubated with microtubules, 1 mM ATP (1:1 MgCl2: Na-ATP), and compound at 23° C. in buffer containing 80 mM K-HEPES (pH 7.0), 1 mM EGTA, 1 mM DTT, 1 mM MgCl2, and 50 mM KCl. […] Free phosphate from the ATP hydrolysis reaction is measured via a quinaldine red/ammonium molybdate assay by adding a […] of quench C (e.g., to a mixture of 40 μl reaction volume+40 μl stop buffer is then added 120 μl quench C). […] Quench C is a 2:1 ratio of quench A:quench B The reaction is incubated for 5-10 minutes at 23° C., and the absorbance of the phospho-molybdate complex is measured at 540 nm.", "data": [{"compound": "CC(=O)N1N=C(c2cc(F)ccc2F)C[C@@]1(CC[C@@H](N)CF)c1ccccc1", "note": "[Compound 2-7, [(1R)-3-[(5S)-1-Acetyl-3-(2,5-difluorophenyl)-5-phenyl-4,5′-dihydro-1H-pyrazol-5-yl]-1-(fluoromethyl)propyl]amine]", "values": [{"measurement": "IC50", "value": "≤ 50", "unit": "µM"}]}, {"compound": "CC(=O)N1N=C(c2cc(F)ccc2F)C[C@@]1(CC[C@H](N)CF)c1ccccc1", "note": "[Compound 2-8, [(1S)-3-[(5S)-1-Acetyl-3-(2,5-difluorophenyl)-5-phenyl-4,5-dihydro-1H-pyrazol-5-yl]-1-(fluoromethyl)propyl]amine]", "values": [{"measurement": "IC50", "value": "≤ 50", "unit": "µM"}]}]}
